Assay results from patent US9840500B2, “Compounds as dual inhibitors of histone methyltransferases and DNA methyltransferases” (FUNDACIÓN PARA LA INVESTIGACIÓN MÉDICA APLICADA, priority 2014, dated 2017).

Columns and labels:
OCI-Ly1 = assay: Cell proliferation assay, OCI-Ly1 (GC-DLBCL); format: cell-based; conditions: Homo sapiens, 48 hours
Protocol: (§1) Cell proliferation was analyzed after 48 hours of in vitro treatment using the CellTiter 96 Aqueous One Solution Cell Proliferation Assay (Promega, Madison, Wis.). This is a colorimetric method for determining the number of viable cells in proliferation.
(§2) For the assay, suspension cells were cultured by triplicate at a density of 1×10^6 cells/ml in 96-well plates (100.000 cells/well, 100 μl/well), except for OCILY-3 and OCILY-10 cell lines which were cultured at a density of 0.5×10^6 cells/ml (50.000 cells/well, 100 μl/well) and for HepG2, Hep3B and PLC/PRF/5 cell ines which were cultured at a density of 3000 cells/well, 100 μl/well). Adherent cells were obtained from 80-90% confluent flasks and 100 μl of cells were seeded at a density of 5000 cells/well in 96-well plates by triplicate. Before addition of the compounds, adherent cells were allowed to attach to the bottom of the wells for 12 hours. […]
(§3) After 48 hours of treatment, plates with suspension cells were centrifuged at 800 g for 10 minutes and medium was removed. […] After 1-3 hours of incubation at 37° C., absorbance was measured at 490 nm in a 96-well plate reader. The background absorbance was measured in wells with only cell line medium and solution reagent. Data was calculated as a percentage of total absorbance of treated cell/absorbance of non treated cells. […]

OCI-Ly10 = assay: Cell proliferation assay, OCI-Ly10 (ABC-DLBCL); format: cell-based; conditions: Homo sapiens, 48 hours of treatment, Table 3
Protocol: as §1
For the assay, suspension cells were cultured by triplicate at a density of 1×10^6 cells/ml in 96-well plates (100.000 cells/well, 100 μl/well), except for OCILY-3 and OCILY-10 cell lines which were cultured at a density of 0.5×10^6 cells/ml (50.000 cells/well, 100 μl/well) and for HepG2, Hep3B and PLC/PRF/5 cell ines which were cultured at a density of 3000 cells/well, 100 μl/well). Adherent cells were obtained from 80-90% confluent flasks and 100 μl of cells were seeded at a density of 5000 cells/well in 96-well plates by triplicate. Before addition of the compounds, adherent cells were allowed to attach to the bottom of the wells for 12 hours. In all cases, only the 60 inner wells were used to avoid any border effects.
After 48 hours of treatment, plates with suspension cells were centrifuged at 800 g for 10 minutes and medium was removed. The plates with adherent cells were flicked to remove medium. Then, cells were incubated with 100 ul/well of medium and 20 ul/well of CellTiter 96 Aqueous One Solution reagent. After 1-3 hours of incubation at 37° C., absorbance was measured at 490 nm in a 96-well plate reader. The background absorbance was measured in wells with only cell line medium and solution reagent. Data was calculated as a percentage of total absorbance of treated cell/absorbance of non treated cells.

CEMO-1 = assay: Cell proliferation assay, CEMO-1 (ALL); format: cell-based, human; conditions: Homo sapiens
SU-DHL-7 = assay: Cell proliferation assay, SU-DHL-7 (GC-DLBCL); format: cell-based; conditions: 48 hours
Protocol: as §1, §2, §3

PEER = assay: Cell proliferation assay, PEER (ALL); format: cell-based; conditions: 48 hours
Protocol: as §1, §2, §3

HBL-2 = assay: Cell proliferation assay, HBL-2 (MCL); format: cell-based; conditions: HBL2, 48 hours
Protocol: as §1, §2, §3

KMS28BM = assay: Cell proliferation assay, KMS28BM (MM); format: cell-based; conditions: KMS-28BM, 48 hours
Protocol: as §1, §2, §3

[1] = test system: human B-ALL mice model with CEMO-1 cell line; assay: In vivo therapeutic activity in the preclinical human B-ALL mice model with CEMO-1 cell line; design: species or system BALB/cA-Rag2−/−γc−/− mice
Protocol: To examine the in vivo activity, a preclinical model of human B-ALL with RAG2 mouse was used. Six to eight-week old female BALB/cA-Rag2^−/−γc^−/− mice were purchased from The Netherlands Cancer Institute and maintained in pathogen-free isolation cages. RAG2 mice were injected intravenously (i.v.) with 10×10^6 CEMO-1 cells via tail vein to generate the human B-ALL mice model. Animals in groups of six were treated starting at day three after cells inoculation. The first group served as control and received placebo (saline) daily for 28 consecutive days, via i.v. injection.
The second group was treated with 3-04 (2.5 mg/kg) daily for 28 consecutive days via i.v. Animals were monitored weekly for weight loss and signs of tumour burden by flow cytometry of human cells. The median survival for 3-04 treated mice (N=6) was 91 days (SD: ±5.72) compared to 57 days (SD: ±10.52) for control mice (N=6) after cells inoculation.

OCI-Ly7 = assay: Cell proliferation assay, OCI-Ly7 (GC-DLBCL); format: cell-based; conditions: Homo sapiens, 48 hours
Protocol: as §1, §2, §3

COc1cc2c(NC3CCN(C)CC3)cc(-c3ccc(C)o3)nc2cc1OCCCN1CCCC1.O=C(O)C(F)(F)F [Compound 3-04, 6-methoxy-2-(5-methyl-2-furyl)-N-(1-methyl-4-piperidyl)-7-(3-pyrrolidin-1-ylpropoxy)quinolin-4-amine; 2,2,2-trifluoroacetic acid]
GI50 (OCI-Ly1): 100 to 1000 nM | GI50 (OCI-Ly10): 100 to 1000 nM | GI50 (CEMO-1; 48 hours of treatment, Table 3): 100 to 1000 nM | GI50 (CEMO-1; ALL, Table 5 comparison): 100 to 1000 nM | GI50 (SU-DHL-7): 100 to 1000 nM | GI50 (PEER): 100 to 1000 nM | GI50 (HBL-2): 100 to 1000 nM | GI50 (KMS28BM): 1000 to 10000 nM | median survival ([1]; 2.5 mg/kg daily for 28 consecutive days i.v., after cells inoculation, control 57 days): 91 days | survival compared with the control (Kaplan-Meier, log-rank test) ([1]; 2.5 mg/kg daily for 28 days i.v., P=0.0009): significantly prolonged survival | GI50 (OCI-Ly7): 100 to 1000 nM
